Test results published in patent publication US5189169A (priority 1991, dated 1993).
“And” between values parts separate entries of the source, which are not always exact repeats. Identical values can stand only once.

Assays:
Settings in all cases: in vivo
[1] = system: three broadleaf weeds (morning glory, mustard, velvetleaf); parameters: species or system Ipomoea purpurea, Brassica kaber, Abutilon theophrasti
yellow nutsedge [2] = system: yellow nutsedge; parameters: species or system Cyperus esculentus
[3] = system: three grassy weeds (wild oat, watergrass, foxtail); parameters: species or system Avena fatua, Echinochloa crusgalli, Setaria viridis
[4] = system: three broadleaf weeds (morning glory, mustard, velvetleaf); parameters: species or system Ipomoea purpurea, Brassica kaber, Abutilon theophrasti; remark: listed apart in the source
yellow nutsedge [5] = system: yellow nutsedge; parameters: species or system Cyperus esculentus; remark: listed apart in the source
[6] = system: three grassy weeds (wild oat, watergrass, foxtail); parameters: species or system Avena fatua, Echinochloa crusgalli, Setaria viridis; remark: listed apart in the source

CCCSP(=O)(N(CCC)CCC)N(CCC)c1ccccc1C(C)C (stereo not drawn) [Compound 57]
% Control, Pre-emergence, BL avg. [1]: 0% | % Control, Post-emergence, NS (yellow nutsedge [2]): 0% | % Control, Pre-emergence, GR avg. [3]: 0% | % Control, Post-emergence, BL avg. [4]: 70% and 60% | % Control, Pre-emergence, NS (yellow nutsedge [5]): 0% | % Control, Post-emergence, GR avg. [6]: 20% and 16%

CCCSP(=O)(N(CCC)CCC)N(C)c1ccc(Cl)cc1Cl (stereo not drawn) [Compound 38]
% Control, Pre-emergence, BL avg. [1]: 0% | % Control, Post-emergence, NS (yellow nutsedge [2]): 0% | % Control, Pre-emergence, GR avg. [3]: 0% | % Control, Post-emergence, BL avg. [4]: 100% | % Control, Pre-emergence, NS (yellow nutsedge [5]): 0% | % Control, Post-emergence, GR avg. [6]: 40%

CCCCCSP(=O)(N(CCCC)CCCC)N(CCCC)CCCC [Compound 4]
% Control, Pre-emergence, BL avg. [1]: 0% | % Control, Post-emergence, NS (yellow nutsedge [2]): 0% | % Control, Pre-emergence, GR avg. [3]: 0% | % Control, Post-emergence, BL avg. [4]: 50% and 45% | % Control, Pre-emergence, NS (yellow nutsedge [5]): 0% | % Control, Post-emergence, GR avg. [6]: 70% and 77%

CCCSP(=O)(N(CCC)CCC)N(C)c1ccc(OC)cc1 (stereo not drawn) [Compound 36]
% Control, Pre-emergence, BL avg. [1]: 0% | % Control, Post-emergence, NS (yellow nutsedge [2]): 0% | % Control, Pre-emergence, GR avg. [3]: 0% | % Control, Post-emergence, BL avg. [4]: 100% | % Control, Pre-emergence, NS (yellow nutsedge [5]): 0% | % Control, Post-emergence, GR avg. [6]: 10%

CCCSP(=O)(N(CCC)CCC)N(C)c1ccc(Cl)cc1Cl (stereo not drawn) [Compound 22]
% Control, Pre-emergence, BL avg. [1]: 0% | % Control, Post-emergence, NS (yellow nutsedge [2]): 10% and 0% | % Control, Pre-emergence, GR avg. [3]: 0% | % Control, Post-emergence, BL avg. [4]: 60% | % Control, Pre-emergence, NS (yellow nutsedge [5]): 0% | % Control, Post-emergence, GR avg. [6]: 50% and 53%

CCCSP(=O)(N(CCC)CCC)N(CCC)c1ccc(Cl)cc1C (stereo not drawn) [Compound 61]
% Control, Pre-emergence, BL avg. [1]: 3% | % Control, Post-emergence, NS (yellow nutsedge [2]): 0% | % Control, Pre-emergence, GR avg. [3]: 0% | % Control, Post-emergence, BL avg. [4]: 80% and 76% | % Control, Pre-emergence, NS (yellow nutsedge [5]): 0% | % Control, Post-emergence, GR avg. [6]: 50% and 38%

CCCCN(c1ccccc1)P(=O)(SCCC)N(CCC)CCC (stereo not drawn) [Compound 24]
% Control, Pre-emergence, BL avg. [1]: 33% | % Control, Post-emergence, NS (yellow nutsedge [2]): 10% and 0% | % Control, Pre-emergence, GR avg. [3]: 0% | % Control, Post-emergence, BL avg. [4]: 80% and 73% | % Control, Pre-emergence, NS (yellow nutsedge [5]): 0% | % Control, Post-emergence, GR avg. [6]: 30% and 23%

CCCN(CCC)P(=O)(Sc1ccccc1)N(CCC)CCC [Compound 63]
% Control, Pre-emergence, BL avg. [1]: 3% | % Control, Post-emergence, NS (yellow nutsedge [2]): 0% | % Control, Pre-emergence, GR avg. [3]: 0% | % Control, Post-emergence, BL avg. [4]: 80% and 91% | % Control, Pre-emergence, NS (yellow nutsedge [5]): 0% | % Control, Post-emergence, GR avg. [6]: 60% and 43%

CCCCCN(CCCCC)P(=O)(SCCC)N(C)c1ccccc1C (stereo not drawn) [Compound 15]
% Control, Pre-emergence, BL avg. [1]: 0% | % Control, Post-emergence, NS (yellow nutsedge [2]): 5% and 0% | % Control, Pre-emergence, GR avg. [3]: 0% | % Control, Post-emergence, BL avg. [4]: 80% and 60% | % Control, Pre-emergence, NS (yellow nutsedge [5]): 0% | % Control, Post-emergence, GR avg. [6]: 50% and 47%

CCCSP(=O)(N(CCC)CCC)N(C)c1ccc(Cl)cc1C (stereo not drawn) [Compound 62]
% Control, Pre-emergence, BL avg. [1]: 0% | % Control, Post-emergence, NS (yellow nutsedge [2]): 0% | % Control, Pre-emergence, GR avg. [3]: 0% | % Control, Post-emergence, BL avg. [4]: 75% and 76% | % Control, Pre-emergence, NS (yellow nutsedge [5]): 0% | % Control, Post-emergence, GR avg. [6]: 30% and 33%

CCCCN(CC(C)C)P(=O)(SCCC)N(CCCC)CC(C)C [Compound 50]
% Control, Pre-emergence, BL avg. [1]: 0% | % Control, Post-emergence, NS (yellow nutsedge [2]): 0% | % Control, Pre-emergence, GR avg. [3]: 0% | % Control, Post-emergence, BL avg. [4]: 85% and 70% | % Control, Pre-emergence, NS (yellow nutsedge [5]): 0% | % Control, Post-emergence, GR avg. [6]: 90% and 77%

CCCN(CCC)P(=O)(Sc1ccccc1C)N(CCC)CCC [Compound 5]
% Control, Pre-emergence, BL avg. [1]: 0% | % Control, Post-emergence, NS (yellow nutsedge [2]): 0% | % Control, Pre-emergence, GR avg. [3]: 0% | % Control, Post-emergence, BL avg. [4]: 40% and 33% | % Control, Pre-emergence, NS (yellow nutsedge [5]): 0% | % Control, Post-emergence, GR avg. [6]: 40% and 27%

CCCSP(=O)(N(CCC)CCC)N(C)c1ccc(Br)cc1Br (stereo not drawn) [Compound 37]
% Control, Pre-emergence, BL avg. [1]: 0% | % Control, Post-emergence, NS (yellow nutsedge [2]): 0% | % Control, Pre-emergence, GR avg. [3]: 0% | % Control, Post-emergence, BL avg. [4]: 80% and 83% | % Control, Pre-emergence, NS (yellow nutsedge [5]): 0% | % Control, Post-emergence, GR avg. [6]: 20% and 10%

CCCSP(=O)(N(CCC)CCC)N(CC)c1ccccc1 (stereo not drawn) [Compound 26]
% Control, Pre-emergence, BL avg. [1]: 33% | % Control, Post-emergence, NS (yellow nutsedge [2]): 0% | % Control, Pre-emergence, GR avg. [3]: 7% | % Control, Post-emergence, BL avg. [4]: 50% | % Control, Pre-emergence, NS (yellow nutsedge [5]): 0% | % Control, Post-emergence, GR avg. [6]: 20% and 10%

CCCSP(=O)(N(CCC)CCC)N(C)c1cccnc1 (stereo not drawn) [Compound 40]
% Control, Pre-emergence, BL avg. [1]: 0% | % Control, Post-emergence, NS (yellow nutsedge [2]): 0% | % Control, Pre-emergence, GR avg. [3]: 0% | % Control, Post-emergence, BL avg. [4]: 70% | % Control, Pre-emergence, NS (yellow nutsedge [5]): 0% | % Control, Post-emergence, GR avg. [6]: 10%

CCCSP(=O)(N(CCC)CCC)N(C)c1c(F)c(F)cc(F)c1F (stereo not drawn) [Compound 53]
% Control, Pre-emergence, BL avg. [1]: 10% | % Control, Post-emergence, NS (yellow nutsedge [2]): 0% | % Control, Pre-emergence, GR avg. [3]: 0% | % Control, Post-emergence, BL avg. [4]: 100% | % Control, Pre-emergence, NS (yellow nutsedge [5]): 0% | % Control, Post-emergence, GR avg. [6]: 75% and 43%

CCCCN(CCCC)P(=O)(SCCC)N(CCCC)CCCC [Compound 7, S-n-propyl-tetra(n-butyl) phosphorodiamide]
% Control, Pre-emergence, BL avg. [1]: 0% | % Control, Post-emergence, NS (yellow nutsedge [2]): 10% and 0% | % Control, Pre-emergence, GR avg. [3]: 0% | % Control, Post-emergence, BL avg. [4]: 90% and 100% | % Control, Pre-emergence, NS (yellow nutsedge [5]): 0% | % Control, Post-emergence, GR avg. [6]: 90% and 93%

CCCSP(=O)(N(CCC)CCC)N(C)c1ccc(OC)c(OC)c1 (stereo not drawn) [Compound 42]
% Control, Pre-emergence, BL avg. [1]: 0% | % Control, Post-emergence, NS (yellow nutsedge [2]): 0% | % Control, Pre-emergence, GR avg. [3]: 0% | % Control, Post-emergence, BL avg. [4]: 50% and 83% | % Control, Pre-emergence, NS (yellow nutsedge [5]): 0% | % Control, Post-emergence, GR avg. [6]: 20% and 23%

CCCSP(=O)(N(CCC)CCC)N(C)c1ccc(Cl)c(Cl)c1 (stereo not drawn) [Compound 20]
% Control, Pre-emergence, BL avg. [1]: 0% | % Control, Post-emergence, NS (yellow nutsedge [2]): 5% and 0% | % Control, Pre-emergence, GR avg. [3]: 0% | % Control, Post-emergence, BL avg. [4]: 50% and 67% | % Control, Pre-emergence, NS (yellow nutsedge [5]): 0% | % Control, Post-emergence, GR avg. [6]: 20% and 13%

CCCCSP(=O)(N(CCC)CCC)N(CCC)CCC [Compound 1]
% Control, Pre-emergence, BL avg. [1]: 50% | % Control, Post-emergence, NS (yellow nutsedge [2]): 10% and 5% | % Control, Pre-emergence, GR avg. [3]: 2% | % Control, Post-emergence, BL avg. [4]: 90% and 100% | % Control, Pre-emergence, NS (yellow nutsedge [5]): 0% | % Control, Post-emergence, GR avg. [6]: 90% and 85%

CCCSP(=O)(N(CCC)CCC)N(C)c1ccc(Br)cc1C (stereo not drawn) [Compound 39]
% Control, Pre-emergence, BL avg. [1]: 0% | % Control, Post-emergence, NS (yellow nutsedge [2]): 80% | % Control, Pre-emergence, GR avg. [3]: 0% | % Control, Post-emergence, BL avg. [4]: 93% | % Control, Pre-emergence, NS (yellow nutsedge [5]): 0% | % Control, Post-emergence, GR avg. [6]: 67%

CCCN(CCC)P(=O)(SC(C)(C)C)N(CCC)CCC [Compound 3]
% Control, Pre-emergence, BL avg. [1]: 100% | % Control, Post-emergence, NS (yellow nutsedge [2]): 5% and 0% | % Control, Pre-emergence, GR avg. [3]: 0% | % Control, Post-emergence, BL avg. [4]: 80% and 100% | % Control, Pre-emergence, NS (yellow nutsedge [5]): 0% | % Control, Post-emergence, GR avg. [6]: 80% and 70%

CCCCN(CCCC)P(=O)(SCCC)N(C)c1ccc(OC)cc1 (stereo not drawn) [Compound 11]
% Control, Pre-emergence, BL avg. [1]: 0% | % Control, Post-emergence, NS (yellow nutsedge [2]): 10% and 0% | % Control, Pre-emergence, GR avg. [3]: 0% | % Control, Post-emergence, BL avg. [4]: 60% and 70% | % Control, Pre-emergence, NS (yellow nutsedge [5]): 9% | % Control, Post-emergence, GR avg. [6]: 30% and 50%

CCCSP(=O)(N(CCC)CCC)N(CCC)c1ccccc1 (stereo not drawn) [Compound 25]
% Control, Pre-emergence, BL avg. [1]: 33% | % Control, Post-emergence, NS (yellow nutsedge [2]): 0% | % Control, Pre-emergence, GR avg. [3]: 0% | % Control, Post-emergence, BL avg. [4]: 50% and 67% | % Control, Pre-emergence, NS (yellow nutsedge [5]): 0% | % Control, Post-emergence, GR avg. [6]: 50% and 67%
